According to patent US20100209486A1, “Method of enhancing CoenzymeQ10 levels in mammals” (priority 2009, published 2010):

Assays:
[1] = tested on: isolated guinea pig hearts; test: Myocardial infarct size (TTC staining) in isolated ischemic/reperfused guinea pig hearts; format: in vivo; conditions: 5 mg/kg/day oral for 4 weeks; 30 min global ischemia, 120 min reperfusion; ratio infarct zone to risk zone; control 38±4.1%
Description: FIG. 2/A Effects of CoQ10 and CoQ9 on infarct size in isolated guinea pig hearts subjected to 30 min of ischemia followed by 120 min of reperfusion. The bars represent mean±SD of infarct size for control, CoQ10 and CoQ9 supplemented groups. *p<0.05 compared to the untreated age-matched ischemic/reperfused drug-free control (C) value. N=12 in each group.
(§1) Experimental studies were designed to determine if CoQ9 could protect guinea pig hearts from ischemia reperfusion injury. Myocardial ischemia reperfusion injury model is the most widely accepted experimental method for assessment of parameters related to cardio-protection. […] Cardioprotection was assessed by evaluating left ventricular function, ventricular arrhythmias, myocardial infarct size and cardiomyocyte apoptosis.
CoQ9 and CoQ10 treatment protects from cardiac infarction: Animal preparation, drug pretreatment and isolated working heart preparation were done as described in example 1. […] Using the NIH Image 1.61 image processing software, Infarct zones of each slice were traced and the respective areas were calculated in terms of pixels. The areas were measured by computerized planimetry software and these areas were multiplied by the weight of each slice, then the results summed up to obtain the weight of the risk zone. Infarct size was calculated as the ratio, in percent, of the infarct zone to the risk zone. […]

[2] = tested on: isolated guinea pig hearts; test: Reperfusion-induced ventricular fibrillation in isolated ischemic/reperfused hearts from orally treated guinea pigs; format: in vivo; conditions: 5 mg/kg/day oral for 4 weeks; 30 min global ischemia then reperfusion; drug-free control 92%
Description: FIG. 1. The incidence of reperfusion-induced ventricular fibrillation (VF). Guinea pigs were orally treated with a daily dose of 5 mg/kg of CoQ10 or CoQ9 or vehicle control for 4 weeks, and then hearts were excised, and isolated for perfusion via Langendorff mode and subjected to 30 min of global ischemia followed by 120 min of reperfusion. N=12 in each group, *p<0.05 compared to the drug-free control (C) group.
as §1
Protective effect of CoQ9 and CoQ10 against from Ventricular Fibrillation (VF): Healthy Male Hartley guinea pigs of about 350-400 gm body weight were randomly divided into three groups, Control, CoQ9 and CoQ10. […] Epicardial ECG was recorded through out the experiment, by attaching two silver electrodes directly to the myocardium and data collected using a data acquisition system (ADInstruments, Powerlab, Castle Hill, Australia). ECGs were analyzed to determine ventricular fibrillation (VF) and ventricular tachycardia (VT). […]

Row | SMILES | infarct size [1] [%] | incidence of reperfusion-induced ventricular fibrillation (VF) [2] [%]
1 | COC1=C(OC)C(=O)C(C/C=C(\C)CC/C=C(\C)CC/C=C(\C)CC/C=C(\C)CC/C=C(\C)CC/C=C(\C)CC/C=C(\C)CC/C=C(\C)CCC=C(C)C)=C(C)C1=O [CoQ9, Coenzyme Q9] | 16.3±3.2 | 8
2 | COC1=C(OC)C(=O)C(C/C=C(\C)CC/C=C(\C)CC/C=C(\C)CC/C=C(\C)CC/C=C(\C)CC/C=C(\C)CC/C=C(\C)CC/C=C(\C)CC/C=C(\C)CCC=C(C)C)=C(C)C1=O [CoQ10, Coenzyme Q10, reference compound] | 21.1±5 | 25
